Assay results reported in patent US20190375708A1 (VenatoRx Pharmaceuticals, Inc., priority 2018, published 2019).

Assays:
[1] = In vitro cytotoxicity assay (MTT cell viability) in HepG2 cells; format: cell-based, human; settings: human
Method in brief: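 Parental HepG2 cells in EMEM + 10% FBS were exposed to compounds (8 half-log dilutions, 30 μM to 1.0 nM) for 7 days at 37 °C, 5% CO2. MTT was then added for 3-4 h, formazan dissolved in DMSO and absorbance read at 492 nm; CC50 came from 4-parameter fits against vehicle controls.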

[2] = tested on: HBV replication in HepAD38 cells; assay: Anti-HBV replication assay in HepAD38 cells (QPCR of extracellular HBV DNA); format: cell-based, HBV (genotype D, serotype ayw); settings: Hepatitis B virus, 168 h, 7 days incubation, extracellular HBV DNA by QPCR, read-out: Anti-HBV EC50
Method in brief: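 Stably transfected HepG2-derived HepAD38 cells express HBV (genotype D, ayw) once tetracycline is withdrawn. Compounds act for 7 days, after which secreted HBV DNA is quantified by QPCR relative to DMSO-treated wells.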

Question: With `Cc1cc(NC(=O)c2c(C)c(C(=O)C(=O)N[C@H]3CCC[C@H]3O)n(C)c2C)ccc1F` [Example 94, N-(4-fluoro-3-methylphenyl)-5-(2-(((1S,2R)-2-hydroxycyclopentyl)amino)-2-oxoacetyl)-1,2,4-trimethyl-1H-pyrrole-3-carboxamide] as the molecule, how does the CC50 at 7 days [1] read?
Answer: > 30 µM

Question: What about the EC50 [2] of the same molecule?
Answer: < 50 nM

Question: Which results are given for `Cc1cc(NC(=O)c2c(C)c(C(=O)C(=O)N[C@@H]3CCC[C@H]3O)n(C)c2C)ccc1F` [Example 95, N-(4-fluoro-3-methylphenyl)-5-(2-(((1R,2R)-2-hydroxycyclopentyl)amino)-2-oxoacetyl)-1,2,4-trimethyl-1H-pyrrole-3-carboxamide]?
Answer: CC50 at 7 days [1]: > 30 µM; EC50 [2]: < 50 nM

Question: With `CCn1c(C)c(C(=O)Nc2ccc(F)c(C)c2)c(C)c1C(=O)C(=O)NC(C)(C)C` [Example 96, 5-(2-(tert-butylamino)-2-oxoacetyl)-1-ethyl-N-(4-fluoro-3-methylphenyl)-2,4-dimethyl-1H-pyrrole-3-carboxamide] as the molecule, how does the CC50 at 7 days [1] read?
Answer: > 30 µM

Question: What about the EC50 [2] of the same molecule?
Answer: < 50 nM

Question: Which CC50 at 7 days [1] does the source give for `Cc1cc(NC(=O)c2c(C)c(C(=O)C(=O)NCc3cnc(N)s3)n(C)c2C)ccc1F` [Example 97, 5-(2-(((2-aminothiazol-5-yl)methyl)amino)-2-oxoacetyl)-N-(4-fluoro-3-methylphenyl)-1,2,4-trimethyl-1H-pyrrole-3-carboxamide] here?
Answer: > 30 µM

Question: What about the EC50 [2] of the same molecule?
Answer: < 50 nM

Question: For `CCn1c(C)c(C(=O)Nc2ccc(F)c(C)c2)c(C)c1C(=O)C(=O)NC(C)(C)CO` [Example 98, 1-ethyl-N-(4-fluoro-3-methylphenyl)-5-(2-((1-hydroxy-2-methylpropan-2-yl)amino)-2-oxoacetyl)-2,4-dimethyl-1H-pyrrole-3-carboxamide], which CC50 at 7 days [1] is on record?
Answer: > 30 µM

Question: What about the EC50 [2] of the same molecule?
Answer: < 50 nM

Question: What does the source list for `CCn1c(C)c(C(=O)Nc2ccc(F)c(C)c2)c(C)c1C(=O)C(=O)NC(C)(C)C(N)=O` [Example 99, 5-(2-((1-amino-2-methyl-1-oxopropan-2-yl)amino)-2-oxoacetyl)-1-ethyl-N-(4-fluoro-3-methylphenyl)-2,4-dimethyl-1H-pyrrole-3-carboxamide]?
Answer: CC50 at 7 days [1]: > 30 µM; EC50 [2]: 50 to 499 nM

Question: With `Cc1cc(NC(=O)c2c(C)c(C(=O)C(=O)N[C@H](C(=O)O)C(C)C)n(C)c2C)ccc1F` [Example 100, (2-(4-((4-fluoro-3-methylphenyl)carbamoyl)-1,3,5-trimethyl-1H-pyrrol-2-yl)-2-oxoacetyl)-L-valine] as the molecule, how does the CC50 at 7 days [1] read?
Answer: 5 to 30 µM

Question: And the EC50 [2]?
Answer: > 1000 nM

Question: Which CC50 at 7 days [1] does the source give for `Cc1cc(NC(=O)c2c(C)c(C(=O)C(=O)N[C@@H](C(=O)O)C(C)C)n(C)c2C)ccc1F` [Example 101, (2-(4-((4-fluoro-3-methylphenyl)carbamoyl)-1,3,5-trimethyl-1H-pyrrol-2-yl)-2-oxoacetyl)-D-valine] here?
Answer: 5 to 30 µM

Question: And the EC50 [2]?
Answer: > 1000 nM

Question: Which results are given for `Cc1cc(NC(=O)c2c(C)c(C(=O)C(=O)N[C@@H](C(N)=O)C3CCCCC3)n(C)c2C)ccc1F` [Example 102, (R)-5-(2-((2-amino-1-cyclohexyl-2-oxoethyl)amino)-2-oxoacetyl)-N-(4-fluoro-3-methylphenyl)-1,2,4-trimethyl-1H-pyrrole-3-carboxamide]?
Answer: CC50 at 7 days [1]: 0.5 to 4.99 µM; EC50 [2]: < 50 nM

Question: Which CC50 at 7 days [1] does the source give for `Cc1cc(NC(=O)c2c(C)c(C(=O)C(=O)N[C@@H](CO)[C@H](C)O)n(C)c2C)ccc1F` [Example 103, 5-(2-(((2S,3S)-1,3-dihydroxybutan-2-yl)amino)-2-oxoacetyl)-N-(4-fluoro-3-methylphenyl)-1,2,4-trimethyl-1H-pyrrole-3-carboxamide] here?
Answer: > 30 µM

Question: What about the EC50 [2] of the same molecule?
Answer: < 50 nM

Question: Which results are given for `CNC(=O)C1(NC(=O)C(=O)c2c(C)c(C(=O)Nc3ccc(F)c(C)c3)c(C)n2C)CC(F)(F)C1` [Example 104, 5-(2-((3,3-difluoro-1-(methylcarbamoyl)cyclobutyl)amino)-2-oxoacetyl)-N-(4-fluoro-3-methylphenyl)-1,2,4-trimethyl-1H-pyrrole-3-carboxamide]?
Answer: CC50 at 7 days [1]: > 30 µM; EC50 [2]: < 50 nM

Question: For `Cc1cc(NC(=O)c2c(C)c(C(=O)C(=O)N[C@@H](C(N)=O)C(C)C)n(C)c2C)ccc1F` [Example 105, (R)-5-(2-((1-amino-3-methyl-1-oxobutan-2-yl)amino)-2-oxoacetyl)-N-(4-fluoro-3-methylphenyl)-1,2,4-trimethyl-1H-pyrrole-3-carboxamide], which CC50 at 7 days [1] is on record?
Answer: 5 to 30 µM

Question: What about the EC50 [2] of the same molecule?
Answer: < 50 nM

Question: With `CNC(=O)[C@H](NC(=O)C(=O)c1c(C)c(C(=O)Nc2ccc(F)c(C)c2)c(C)n1C)C(C)C` [Example 106, (R)-N-(4-fluoro-3-methylphenyl)-1,2,4-trimethyl-5-(2-((3-methyl-1-(methylamino)-1-oxobutan-2-yl)amino)-2-oxoacetyl)-1H-pyrrole-3-carboxamide] as the molecule, how does the CC50 at 7 days [1] read?
Answer: 0.5 to 4.99 µM

Question: And the EC50 [2]?
Answer: < 50 nM

Question: What does the source list for `Cc1cc(NC(=O)c2c(C)c(C(=O)C(=O)N[C@H](C(N)=O)C(C)C)n(C)c2C)ccc1F` [Example 107, (S)-5-(2-((1-amino-3-methyl-1-oxobutan-2-yl)amino)-2-oxoacetyl)-N-(4-fluoro-3-methylphenyl)-1,2,4-trimethyl-1H-pyrrole-3-carboxamide]?
Answer: CC50 at 7 days [1]: > 30 µM; EC50 [2]: < 50 nM

Question: Which results are given for `CNC(=O)[C@@H](NC(=O)C(=O)c1c(C)c(C(=O)Nc2ccc(F)c(C)c2)c(C)n1C)C(C)C` [Example 108, (S)-N-(4-fluoro-3-methylphenyl)-1,2,4-trimethyl-5-(2-((3-methyl-1-(methylamino)-1-oxobutan-2-yl)amino)-2-oxoacetyl)-1H-pyrrole-3-carboxamide]?
Answer: CC50 at 7 days [1]: 0.5 to 4.99 µM; EC50 [2]: < 50 nM

Question: What does the source list for `Cc1cc(NC(=O)c2c(C)c(C(=O)C(=O)NC3(C(F)(F)F)CCOCC3)n(C)c2C)ccc1F` [Example 109, N-(4-fluoro-3-methylphenyl)-1,2,4-trimethyl-5-(2-oxo-2-((4-(trifluoromethyl)tetrahydro-2H-pyran-4-yl)amino)acetyl)-1H-pyrrole-3-carboxamide]?
Answer: CC50 at 7 days [1]: > 30 µM; EC50 [2]: < 50 nM

Question: Which results are given for `Cc1c(C(=O)Nc2ccc(F)nc2)c(C)n(C)c1C(=O)C(=O)NC1(C(F)(F)F)CCOCC1` [Example 110, N-(6-fluoropyridin-3-yl)-1,2,4-trimethyl-5-(2-oxo-2-((4-(trifluoromethyl)tetrahydro-2H-pyran-4-yl)amino)acetyl)-1H-pyrrole-3-carboxamide]?
Answer: CC50 at 7 days [1]: > 30 µM; EC50 [2]: < 50 nM

Question: For `Cc1cc(NC(=O)c2c(C)c(C(=O)C(=O)NCc3csc(N)n3)n(C)c2C)ccc1F` [Example 111, 5-(2-(((2-aminothiazol-4-yl)methyl)amino)-2-oxoacetyl)-N-(4-fluoro-3-methylphenyl)-1,2,4-trimethyl-1H-pyrrole-3-carboxamide], which CC50 at 7 days [1] is on record?
Answer: > 30 µM

Question: What about the EC50 [2] of the same molecule?
Answer: < 50 nM

Question: For `Cc1cc(NC(=O)c2c(C)c(C(=O)C(=O)NC(C)(C)C)n(C)c2C)cnc1F` [Example 112, 5-(2-(tert-butylamino)-2-oxoacetyl)-N-(6-fluoro-5-methylpyridin-3-yl)-1,2,4-trimethyl-1H-pyrrole-3-carboxamide], which CC50 at 7 days [1] is on record?
Answer: > 30 µM

Question: And the EC50 [2]?
Answer: 50 to 499 nM

Question: Which CC50 at 7 days [1] does the source give for `Cc1cc(NC(=O)c2c(C)c(C(=O)C(=O)NC34CC5CC(CC3C5)C4)n(C)c2C)cnc1F` [Example 113, N-(6-fluoro-5-methylpyridin-3-yl)-5-(2-(((2R,3as,5S,6as)-hexahydro-2,5-methanopentalen-3a(1H)-yl)amino)-2-oxoacetyl)-1,2,4-trimethyl-1H-pyrrole-3-carboxamide] here?
Answer: > 30 µM

Question: And the EC50 [2]?
Answer: < 50 nM

Question: Which results are given for `Cc1cc(NC(=O)c2c(C)c(C(=O)C(=O)NC34CC5CC(CC(O)(C5)C3)C4)n(C)c2C)cnc1F` [Example 114, N-(6-fluoro-5-methylpyridin-3-yl)-5-(2-(((1r,3s,5R,7S)-3-hydroxyadamantan-1-yl)amino)-2-oxoacetyl)-1,2,4-trimethyl-1H-pyrrole-3-carboxamide]?
Answer: CC50 at 7 days [1]: > 30 µM; EC50 [2]: < 50 nM

Question: Which CC50 at 7 days [1] does the source give for `Cc1cc(NC(=O)c2c(C)c(C(=O)C(=O)NC(C)(C)C)n(CCF)c2C)ccc1F` [Example 115, 5-(2-(tert-butylamino)-2-oxoacetyl)-N-(4-fluoro-3-methylphenyl)-1-(2-fluoroethyl)-2,4-dimethyl-1H-pyrrole-3-carboxamide] here?
Answer: > 30 µM

Question: What about the EC50 [2] of the same molecule?
Answer: < 50 nM

Question: For `Cc1cc(NC(=O)c2c(C)c(C(=O)C(=O)NC(C)(C)CO)n(CCF)c2C)ccc1F` [Example 116, N-(4-fluoro-3-methylphenyl)-1-(2-fluoroethyl)-5-(2-((1-hydroxy-2-methylpropan-2-yl)amino)-2-oxoacetyl)-2,4-dimethyl-1H-pyrrole-3-carboxamide], which CC50 at 7 days [1] is on record?
Answer: > 30 µM

Question: What about the EC50 [2] of the same molecule?
Answer: < 50 nM

Question: With `Cc1cc(NC(=O)c2c(C)c(C(=O)C(=O)NC(C)(C)C(N)=O)n(CCF)c2C)ccc1F` [Example 117, 5-(2-((1-amino-2-methyl-1-oxopropan-2-yl)amino)-2-oxoacetyl)-N-(4-fluoro-3-methylphenyl)-1-(2-fluoroethyl)-2,4-dimethyl-1H-pyrrole-3-carboxamide] as the molecule, how does the CC50 at 7 days [1] read?
Answer: > 30 µM

Question: What about the EC50 [2] of the same molecule?
Answer: 50 to 499 nM

Question: What does the source list for `Cc1cc(NC(=O)c2c(C)c(C(=O)C(=O)N[C@H]3C4CC5CC3C[C@](O)(C5)C4)n(CCF)c2C)ccc1F` [Example 118, N-(4-fluoro-3-methylphenyl)-1-(2-fluoroethyl)-5-(2-(((1R,2s,3S,5s,7s)-5-hydroxyadamantan-2-yl)amino)-2-oxoacetyl)-2,4-dimethyl-1H-pyrrole-3-carboxamide]?
Answer: CC50 at 7 days [1]: > 30 µM; EC50 [2]: < 50 nM

Question: With `Cc1c(C(=O)Nc2ccc(F)nc2)c(C)n(C)c1C(=O)C(=O)NC(C)C(F)(F)F` (stereo not shown) [Example 119, N-(6-fluoropyridin-3-yl)-1,2,4-trimethyl-5-(2-oxo-2-((1,1,1-trifluoropropan-2-yl)amino)acetyl)-1H-pyrrole-3-carboxamide] as the molecule, how does the CC50 at 7 days [1] read?
Answer: > 30 µM

Question: And the EC50 [2]?
Answer: < 50 nM
